Assay: Evaluation of acid resistance of allulose disaccharide (residual percentage by HPLC after storage in citrate buffer)
Format: physicochemical
Conditions: for Residual percentage: 1% (w/v) in 10 mM citrate buffer
Experimental: 1% D1 solution was prepared (in 10 mM citrate buffer) to measure acid resistance thereof. Sucrose that is a disaccharide having a similar structure and D2 that is another allulose disaccharide were used as controls.
The pH of the solution was adjusted to pH 2.0, 4.0, and 6.0 using 10 mM citrate and sodium citrate buffers. The prepared solutions were respectively stored at room temperature ([…]), and purities of remaining substances were identified by HPLC analysis (HPX-87C column, 80° C., 60 min, 20 μl) at 0 hour, 24 hours, 72 hours, and 120 hours. The concentration of each substance was 1% (w/v) and reaction temperature was 40° C.
Those results which show statistically significant difference under the same experimental conditions were indicated by different alphabets.
The measured results with respect to storage time were analyzed using analysis of variance (ANOVA) as statistical analysis and tukey's multiple range test as post hoc analysis, and statistical significance was set to p<0.05.

Row | Compound | Acid resistance compared with D2 and sucrose (at pH 6 or less) | Residual percentage (pH 2, 40° C., 0 hr) [%] | Residual percentage (pH 2, 40° C., 24 hr) | Residual percentage (pH 2, 40° C., 72 hr) | Residual percentage (pH 2, 40° C., 120 hr) | Residual percentage of D1 relative to that of sucrose (higher than) (pH 2, after 120 hours) | Residual percentage (pH 4, 40° C., 0 hr) [%] | Residual percentage (pH 4, 40° C., 24 hr) | Residual percentage (pH 4, 40° C., 72 hr) | Residual percentage (pH 4, 40° C., 120 hr) | Residual percentage (pH 6, 40° C., 0 hr) [%] | Residual percentage (pH 6, 40° C., 24 hr) [%] | Residual percentage (pH 6, 40° C., 72 hr) [%] | Residual percentage (pH 6, 40° C., 120 hr)
1 | OCC1(O)O[C@H](CO[C@]2(CO)OC[C@@H](O)[C@@H](O)[C@H]2O)[C@@H](O)[C@H]1O (stereo partly drawn) [D1, (2S,3R,4R,5R)-2-(hydroxymethyl)-2-(((2R,3S,4R)-3,4,5-trihydroxy-5-(hydroxymethyl)tetrahydrofuran-2-yl)methoxy)tetrahydro-2H-pyran-3,4,5-triol] | higher acid resistance than that of D2 and sucrose | 100.0 | 85.9^A % | 58.2^A % | 44.6^A % | about 130% | 100.0 | 99.0^A % | 98.8^A % | 97.9^A % | 100.0 | 100.0 | 100.0 | 99.96^A* %
2 | OC[C@H]1O[C@@](CO)(O[C@H]2O[C@H](CO)[C@@H](O)[C@H](O)[C@H]2O)[C@@H](O)[C@@H]1O [Sucrose, reference compound] |  | 100.0 | 81.2^B % | 51.9^B % | 34.4^B % |  | 100.0 | 98.1^A % | 95.8^B % | 92.9^B % | 100.0 | 100.0 | 99.9 | 99.58^A* %
